Tests used:
Test in all cases: Test B pre-/postemergence plant response
Format in all cases: in vivo
[1] = tested on: lambsquarters (Chenopodium album); conditions: for Lambsquarters plant response rating: 8 g ai/ha
Method in brief: (§1)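 Preemergence and postemergence (plants 2-18 cm, 1- to 4-leaf stage) applications used test chemicals in a non-phytotoxic solvent with surfactant. Plants were held in a greenhouse 13 to 15 days, then rated visually against controls on a 0-100 scale (0 no effect, 100 complete control).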

soybean (Glycine max) = conditions: for Soybean plant response rating: 8 g ai/ha
Method in brief: as §1

[2] = tested on: morningglory (Ipomoea coccinea); conditions: for Morningglory plant response rating: 8 g ai/ha
Method in brief: as §1

[3] = tested on: common (oilseed) sunflower (Helianthus annuus); conditions: Preemergence
Method in brief: as §1

[4] = tested on: velvetleaf (Abutilon theophrasti); conditions: for Velvetleaf plant response rating: 8 g ai/ha
Method in brief: as §1

[5] = tested on: johnsongrass (Sorghum halepense); conditions: for Johnsongrass plant response rating: 8 g ai/ha
Method in brief: as §1

[6] = tested on: Italian ryegrass (Lolium multiflorum); conditions: for Ryegrass, Italian plant response rating: 8 g ai/ha
Method in brief: as §1

[7] = tested on: surinam grass (Brachiaria decumbens); conditions: for Surinam Grass plant response rating: 8 g ai/ha
Method in brief: as §1

[8] = tested on: common ragweed (Ambrosia elation); conditions: for Ragweed plant response rating: 8 g ai/ha
Method in brief: as §1

[9] = tested on: bermudagrass (Cynodon dactylon); conditions: for Bermudagrass plant response rating: 8 g ai/ha
Method in brief: as §1

[10] = tested on: cocklebur (Xanthium strumarium); conditions: for Cocklebur plant response rating: 8 g ai/ha
Method in brief: as §1

[11] = tested on: wheat (Triticum aestivum); conditions: for Wheat plant response rating: 8 g ai/ha
Method in brief: as §1

kochia (Kochia scoparia) = conditions: for Kochia plant response rating: 8 g ai/ha
Method in brief: as §1

[12] = tested on: goosegrass (Eleusine indica); conditions: for Goosegrass plant response rating: 8 g ai/ha
Method in brief: as §1

[13] = Postemergence, 16 g ai/ha, scale 0 to 100
[14] = Postemergence, 31 g ai/ha, scale 0 to 100, 0 no effect, 100 complete control
[15] = Postemergence, 62 g ai/ha, scale 0 to 100, 0 no effect, 100 complete control
[16] = Preemergence, 16 g ai/ha, scale 0 to 100 (0 no effect, 100 complete control)
[17] = Preemergence, 31 g ai/ha, 0 to 100 scale, 0 no effect, 100 complete control
[18] = Preemergence, 62 g ai/ha, scale 0 to 100

For `CCc1cc(-c2ccc(Cl)cc2)nn1-c1c(OS(C)(=O)=O)cnn(C)c1=O` [Compound 39], the “Lambsquarters plant response rating” value ([1]; postemergence, 0-100 scale) was 0, the “Plant response rating, Lambsquarters” value [1, 13] was 0 and the “Plant response rating, Lambsquarters” value [1, 14] was 0. For the same compound, the “Plant response rating, Lambsquarters” value [1, 15] was 0, the “Plant response rating, Lambsquarters” value [1, 16] was 0 and the “Plant response rating, Lambsquarters” value [1, 17] was 0. The “Plant response rating, Lambsquarters” value [1, 18] was 0, the “Lambsquarters plant response rating” value ([1]; Preemergence, scale 0 to 100) was 0 and the “Soybean plant response rating” value (soybean (Glycine max); postemergence, 0-100 scale) was 0. For the same compound, the “Plant response rating, Soybean” value (soybean (Glycine max); [13]) was 0, the “Plant response rating, Soybean” value (soybean (Glycine max); [15]) was 0 and the “Plant response rating, Soybean” value (soybean (Glycine max); [16]) was 0. The “Plant response rating, Soybean” value (soybean (Glycine max); [17]) was 0, the “Plant response rating, Soybean” value (soybean (Glycine max); [18]) was 0 and the “Soybean plant response rating” value (soybean (Glycine max); Preemergence, scale 0 to 100) was 0. For the same compound, the “Morningglory plant response rating” value ([2]; postemergence, 0-100 scale) was 0, the “Plant response rating, Morningglory” value [2, 13] was 0 and the “Plant response rating, Morningglory” value [2, 14] was 0. The “Plant response rating, Morningglory” value [2, 15] was 0, the “Plant response rating, Morningglory” value [2, 16] was 0 and the “Plant response rating, Morningglory” value [2, 17] was 0. For the same compound, the “Plant response rating, Morningglory” value [2, 18] was 0, the “Morningglory plant response rating” value ([2]; Preemergence, scale 0 to 100) was 0 and the “Plant response rating, Sunflower” value ([3]; 16 g ai/ha, scale 0 to 100 (0 no effect, 100 complete control)) was 0. The “Plant response rating, Sunflower” value ([3]; 31 g ai/ha, 0 to 100 scale, 0 no effect, 100 complete control) was 0, the “Plant response rating, Sunflower” value ([3]; 62 g ai/ha, scale 0 to 100) was 0 and the “Sunflower plant response rating” value ([3]; 8 g ai/ha, scale 0 to 100) was 0. For the same compound, the “Velvetleaf plant response rating” value ([4]; postemergence, 0-100 scale) was 0, the “Plant response rating, Velvetleaf” value [4, 13] was 0 and the “Plant response rating, Velvetleaf” value [4, 15] was 0. For the same compound, the “Plant response rating, Velvetleaf” value [4, 16] was 0, the “Plant response rating, Velvetleaf” value [4, 17] was 0 and the “Plant response rating, Velvetleaf” value [4, 18] was 0. The “Velvetleaf plant response rating” value ([4]; Preemergence, scale 0 to 100) was 0, the “Johnsongrass plant response rating” value ([5]; postemergence, 0-100 scale) was 40 and the “Plant response rating, Johnsongrass” value [5, 13] was 55. The “Plant response rating, Johnsongrass” value [5, 14] was 95, the “Plant response rating, Johnsongrass” value [5, 15] was 95 and the “Plant response rating, Johnsongrass” value [5, 16] was 90. For the same compound, the “Plant response rating, Johnsongrass” value [5, 17] was 90, the “Plant response rating, Johnsongrass” value [5, 18] was 95 and the “Johnsongrass plant response rating” value ([5]; Preemergence, scale 0 to 100) was 75. The “Ryegrass, Italian plant response rating” value ([6]; postemergence, 0-100 scale) was 30, the “Plant response rating, Ryegrass, Italian” value [6, 13] was 90 and the “Plant response rating, Ryegrass, Italian” value [6, 14] was 95. For the same compound, the “Plant response rating, Ryegrass, Italian” value [6, 15] was 100, the “Plant response rating, Ryegrass, Italian” value [6, 16] was 95 and the “Plant response rating, Ryegrass, Italian” value [6, 17] was 100. The “Plant response rating, Ryegrass, Italian” value [6, 18] was 100, the “Ryegrass, Italian plant response rating” value ([6]; Preemergence, scale 0 to 100) was 90 and the “Surinam Grass plant response rating” value ([7]; postemergence, 0-100 scale) was 100. The “Plant response rating, Surinam Grass” value [7, 13] was 100, the “Plant response rating, Surinam Grass” value [7, 15] was 100 and the “Plant response rating, Surinam Grass” value [7, 16] was 95. The “Plant response rating, Surinam Grass” value [7, 17] was 100, the “Plant response rating, Surinam Grass” value [7, 18] was 100 and the “Surinam Grass plant response rating” value ([7]; Preemergence, scale 0 to 100) was 90. For the same compound, the “Ragweed plant response rating” value ([8]; postemergence, 0-100 scale) was 0, the “Plant response rating, Ragweed” value [8, 13] was 0 and the “Plant response rating, Ragweed” value [8, 14] was 0. For the same compound, the “Plant response rating, Ragweed” value [8, 15] was 0, the “Plant response rating, Ragweed” value [8, 16] was 0 and the “Plant response rating, Ragweed” value [8, 17] was 0. For the same compound, the “Plant response rating, Ragweed” value [8, 18] was 0, the “Ragweed plant response rating” value ([8]; Preemergence, scale 0 to 100) was 0 and the “Bermudagrass plant response rating” value ([9]; postemergence, 0-100 scale) was 0. For the same compound, the “Plant response rating, Bermudagrass” value [9, 13] was 60, the “Plant response rating, Bermudagrass” value [9, 14] was 75 and the “Plant response rating, Bermudagrass” value [9, 15] was 95. For the same compound, the “Bermudagrass plant response rating” value ([9]; Preemergence, scale 0 to 100 (0 no effect, 100 complete control)) was 0, the “Plant response rating, Bermudagrass” value [9, 16] was 90 and the “Plant response rating, Bermudagrass” value [9, 17] was 95. The “Plant response rating, Bermudagrass” value [9, 18] was 98, the “Cocklebur plant response rating” value ([10]; postemergence, 0-100 scale) was 0 and the “Plant response rating, Cocklebur” value [10, 13] was 0. The “Plant response rating, Cocklebur” value [10, 14] was 0, the “Plant response rating, Cocklebur” value [10, 15] was 0 and the “Plant response rating, Cocklebur” value [10, 16] was 0. The “Plant response rating, Cocklebur” value [10, 17] was 0, the “Plant response rating, Cocklebur” value [10, 18] was 0 and the “Cocklebur plant response rating” value ([10]; Preemergence, scale 0 to 100) was 0. The “Wheat plant response rating” value ([11]; postemergence, 0-100 scale) was 20, the “Plant response rating, Wheat” value [11, 13] was 20 and the “Plant response rating, Wheat” value [11, 15] was 98. The “Plant response rating, Wheat” value [11, 16] was 30, the “Plant response rating, Wheat” value [11, 17] was 70 and the “Plant response rating, Wheat” value [11, 18] was 80. For the same compound, the “Wheat plant response rating” value ([11]; Preemergence, scale 0 to 100) was 0, the “Kochia plant response rating” value (kochia (Kochia scoparia); postemergence, 0-100 scale) was 0 and the “Plant response rating, Kochia” value (kochia (Kochia scoparia); [13]) was 0. For the same compound, the “Plant response rating, Kochia” value (kochia (Kochia scoparia); [14]) was 0, the “Plant response rating, Kochia” value (kochia (Kochia scoparia); [15]) was 0 and the “Plant response rating, Kochia” value (kochia (Kochia scoparia); [16]) was 0. The “Plant response rating, Kochia” value (kochia (Kochia scoparia); [17]) was 0, the “Plant response rating, Kochia” value (kochia (Kochia scoparia); [18]) was 0 and the “Kochia plant response rating” value (kochia (Kochia scoparia); Preemergence, scale 0 to 100) was 0. The “Goosegrass plant response rating” value ([12]; postemergence, 0-100 scale) was 20, the “Plant response rating, Goosegrass” value [12, 13] was 65 and the “Plant response rating, Goosegrass” value [12, 14] was 85. The “Plant response rating, Goosegrass” value [12, 15] was 100, the “Plant response rating, Goosegrass” value [12, 16] was 100 and the “Plant response rating, Goosegrass” value [12, 17] was 100. The “Plant response rating, Goosegrass” value [12, 18] was 100 and the “Goosegrass plant response rating” value ([12]; Preemergence, scale 0 to 100) was 95.
